These results are taken from ChEMBL document CHEMBL4229348, “Structure-activity relationship studies of ultra-short peptides with potent activities against fluconazole-resistant Candida albicans” (Eur J Med Chem, 2018).

Data set [1] has as its system Candida albicans. The experiment in a line: Antifungal activity against fluconazole-resistant Candida albicans ATCC 64550 after overnight incubation by CLSI broth microdilution method. Type of data set: functional.
Data set [2] is described as follows: Retention time of the compound at 0.4 mM by HPLC analysis. To be noted: 400 µM. Type of data set: physicochemical.

Values after ≈ are worked out from the molar mass of the structure shown. Square brackets hold non-standard residues; d marks the D form. Peptide text beside a SMILES is read from it. Lys(Me2) = CN(C)CCCC[C@H](N)C(=O)O; Ala(cPr) = N[C@@H](CC1CC1)C(=O)O; tBuAla = CC(C)(C)C[C@H](N)C(=O)O; Dap = NC[C@H](N)C(=O)O

Take `CC(C)C[C@@H](N)C(=O)N[C@H](CCCCN)C(=O)N[C@H](CC(C)C)C(=O)N[C@H](CCCCN)C(=O)N[C@H](CC(C)C)C(=O)N[C@H](CCCCN)C(=O)N[C@H](CC(C)C)C(=O)N[C@H](CCCCN)C(N)=O`: the lowest concentration to inhibit growth in data set [1] (MIC) was 3.13 µM (≈ 3.07 µg/mL). In data set [2], this compound displayed a Retention_time of 13.8 min.

Regarding `CC(C)C[C@H](NC(=O)[C@H](CCCCN)NC(=O)[C@H](CC(C)C)NC(=O)[C@H](CCCCN)NC(=O)[C@H](CC(C)C)NC(=O)[C@H](CCCCN)NC(=O)[C@@H](N)CC(C)C)C(=O)N[C@@H](CCCCN)C(N)=O`, the minimal inhibitory concentration (MIC) in data set [1] turned out to be 3.13 µM (≈ 3.07 µg/mL). This compound returned a Retention_time in data set [2] of 13.8 min.

The compound `CC[C@H](C)[C@H](N)C(=O)N[C@@H](CN)C(=O)N[C@H](C(=O)N[C@@H](CN)C(=O)N[C@H](C(=O)N[C@@H](CN)C(=O)N[C@H](C(=O)N[C@@H](CN)C(=O)N[C@H](C(N)=O)[C@@H](C)CC)[C@@H](C)CC)[C@@H](C)CC)[C@@H](C)CC` (H-I[Dap]I[Dap]I[Dap]I[Dap]I-NH2) displayed a minimal inhibitory concentration (MIC) in data set [1] of 25 µM (≈ 23.2 µg/mL). The Retention_time in data set [2] worked out at 13.7 min.

Compound `CC[C@H](C)[C@H](N)C(=O)N[C@@H](CCCCN(C)C)C(=O)N[C@H](C(=O)N[C@@H](CCCCN(C)C)C(=O)N[C@H](C(=O)N[C@@H](CCCCN(C)C)C(=O)N[C@H](C(=O)N[C@@H](CCCCN(C)C)C(N)=O)[C@@H](C)CC)[C@@H](C)CC)[C@@H](C)CC` (H-I[Lys(Me2)]I[Lys(Me2)]I[Lys(Me2)]I[Lys(Me2)]-NH2) yielded an MIC in data set [1] of 100 µM (≈ 109 µg/mL). In data set [2], this compound yielded a Retention_time of 14 min.

On to `CC(C)C[C@H](NC(=O)[C@H](CCCCN)NC(=O)[C@@H](N)CC(C)C)C(=O)N[C@@H](CCCCN)C(N)=O` (H-LKLK-NH2), for which, in data set [1], the minimum inhibitory concentration (MIC) was above 100 µM. This compound showed a Retention_time in data set [2] of 11 min.

`CC(C)C[C@H](NC(=O)[C@H](CCCCN)NC(=O)[C@@H](N)CC(C)C)C(N)=O` (H-Leu-Lys-Leu-NH2) came in with an MIC in data set [1] above 100 µM. Moreover, in data set [2], the Retention_time was found to be 12.1 min.

`CC(C)C[C@H](N)C(=O)N[C@@H](CCCCN)C(N)=O` (H-Leu-Lys-NH2) displayed a minimal inhibitory concentration (MIC) in data set [1] above 100 µM. The Retention_time in data set [2] was 2.1 min.

Take `CC(C)C[C@H](NC(=O)[C@@H](N)CCCCN)C(=O)N[C@@H](CCCCN)C(N)=O` (H-Lys-Leu-Lys-NH2): the MIC in data set [1] is above 100 µM. The Retention_time in data set [2] is reported as 2.4 min.

As for `NCCCC[C@H](NC(=O)[C@H](CC1CC1)NC(=O)[C@H](CCCCN)NC(=O)[C@H](CC1CC1)NC(=O)[C@H](CCCCN)NC(=O)[C@H](CC1CC1)NC(=O)[C@H](CCCCN)NC(=O)[C@@H](N)CC1CC1)C(N)=O` (H-[Ala(cPr)]K[Ala(cPr)]K[Ala(cPr)]K[Ala(cPr)]K-NH2), in data set [1], inhibition of growth (MIC) required 6.25 µM (≈ 6.09 µg/mL). For the same compound, the Retention_time in data set [2] was 12.8 min.

With `CC(C)(C)C[C@H](NC(=O)[C@H](CCCCN)NC(=O)[C@H](CC(C)(C)C)NC(=O)[C@H](CCCCN)NC(=O)[C@H](CC(C)(C)C)NC(=O)[C@H](CCCCN)NC(=O)[C@@H](N)CC(C)(C)C)C(=O)N[C@@H](CCCCN)C(N)=O` (H-[tBuAla]K[tBuAla]K[tBuAla]K[tBuAla]K-NH2), the MIC in data set [1] stood at 3.13 µM (≈ 3.25 µg/mL). Besides, the Retention_time in data set [2] was 15.6 min.

For `CC[C@H](C)[C@H](N)C(=O)N[C@@H](CCN)C(=O)N[C@H](C(=O)N[C@@H](CCN)C(=O)N[C@H](C(=O)N[C@@H](CCN)C(=O)N[C@H](C(=O)N[C@@H](CCN)C(=O)N[C@H](C(N)=O)[C@@H](C)CC)[C@@H](C)CC)[C@@H](C)CC)[C@@H](C)CC` (HELM PEPTIDE1{I.[Dab].I.[Dab].I.[Dab].I.[Dab].I.[am]}$$$$V2.0), in data set [1], the minimal inhibitory concentration (MIC) is 6.25 µM (≈ 6.15 µg/mL). Further, the Retention_time in data set [2] came out at 13.5 min.

`CC[C@H](C)[C@H](N)C(=O)N[C@@H](CCCN)C(=O)N[C@H](C(=O)N[C@@H](CCCN)C(=O)N[C@H](C(=O)N[C@@H](CCCN)C(=O)N[C@H](C(=O)N[C@@H](CCCN)C(=O)N[C@H](C(N)=O)[C@@H](C)CC)[C@@H](C)CC)[C@@H](C)CC)[C@@H](C)CC` (HELM PEPTIDE1{I.[Orn].I.[Orn].I.[Orn].I.[Orn].I.[am]}$$$$V2.0): 6.25 µM (≈ 6.5 µg/mL) was the least that counted as inhibitory in data set [1] (MIC). In addition, the Retention_time in data set [2] was 13.2 min.

Turning to `CC[C@H](NC(=O)[C@H](CCCCN)NC(=O)[C@H](CC)NC(=O)[C@H](CCCCN)NC(=O)[C@H](CC)NC(=O)[C@H](CCCCN)NC(=O)[C@@H](N)CC)C(=O)N[C@@H](CCCCN)C(N)=O` (HELM PEPTIDE1{[Abu].K.[Abu].K.[Abu].K.[Abu].K.[am]}$$$$V2.0), the minimum inhibitory concentration (MIC) in data set [1] is above 100 µM. In data set [2], the Retention_time is listed as 6 min.

In data set [1], `CCCCCCCCCCCC(=O)N[C@H](C(=O)N[C@@H](CCCCN)C(=O)N[C@H](C(=O)N[C@@H](CCCCN)C(=O)N[C@H](C(=O)N[C@@H](CCCCN)C(=O)N[C@H](C(=O)N[C@@H](CCCCN)C(N)=O)[C@@H](C)CC)[C@@H](C)CC)[C@@H](C)CC)[C@@H](C)CC` (HELM PEPTIDE1{[CCCCCCCCCCCC(=O)[*:2]].I.K.I.K.I.K.I.K.[am]}$$$$V2.0) displayed an MIC above 100 µM. Further, in data set [2], the Retention_time came out at 20.8 min.

Take `CCCCCCCCCCCCCCCC(=O)N[C@H](C(=O)N[C@@H](CCCCN)C(=O)N[C@H](C(=O)N[C@@H](CCCCN)C(=O)N[C@H](C(=O)N[C@@H](CCCCN)C(=O)N[C@H](C(=O)N[C@@H](CCCCN)C(N)=O)[C@@H](C)CC)[C@@H](C)CC)[C@@H](C)CC)[C@@H](C)CC` (HELM PEPTIDE1{[CCCCCCCCCCCCCCCC(=O)[*:2]].I.K.I.K.I.K.I.K.[am]}$$$$V2.0): the MIC in data set [1] was above 100 µM. The compound also displayed a Retention_time in data set [2] of 23.5 min.

On to `NCCCC[C@H](NC(=O)[C@H](CC1CCCCC1)NC(=O)[C@H](CCCCN)NC(=O)[C@H](CC1CCCCC1)NC(=O)[C@H](CCCCN)NC(=O)[C@H](CC1CCCCC1)NC(=O)[C@H](CCCCN)NC(=O)[C@@H](N)CC1CCCCC1)C(N)=O` (HELM PEPTIDE1{[Cha].K.[Cha].K.[Cha].K.[Cha].K.[am]}$$$$V2.0), for which the MIC in data set [1] is above 100 µM. The same compound returned a Retention_time in data set [2] of 17.9 min.

Compound `CCC[C@H](NC(=O)[C@H](CCCCN)NC(=O)[C@H](CCC)NC(=O)[C@H](CCCCN)NC(=O)[C@H](CCC)NC(=O)[C@H](CCCCN)NC(=O)[C@@H](N)CCC)C(=O)N[C@@H](CCCCN)C(N)=O` (HELM PEPTIDE1{[Nva].K.[Nva].K.[Nva].K.[Nva].K.[am]}$$$$V2.0) gave a minimal inhibitory concentration (MIC) in data set [1] of 6.25 µM (≈ 5.79 µg/mL). In addition, the Retention_time in data set [2] stood at 12 min.

Consider Ac-IKIKIKIK-NH2, for which the minimum inhibitory concentration (MIC) in data set [1] was 12.5 µM. The same compound displayed a Retention_time in data set [2] of 14.3 min.

Regarding H-AKAKAKAK-NH2, the MIC in data set [1] was above 100 µM. The compound further yielded a Retention_time in data set [2] of 1.9 min.

In turn, H-AKIKIKIK-NH2 had an MIC in data set [1] of 6.25 µM. This compound registered a Retention_time in data set [2] of 12.4 min.

On to H-EKEKEKEK-NH2, for which, in data set [1], the MIC is above 100 µM. In data set [2], this compound registered a Retention_time of 1.9 min.

Compound H-FKFKFKFK-NH2 had an MIC in data set [1] of 6.25 µM. In addition, the Retention_time in data set [2] is given as 15.2 min.

H-GKGKGKGK-NH2 returned an MIC in data set [1] above 100 µM. The compound also came in with a Retention_time in data set [2] of 1.6 min.

Compound H-IAIKIKIK-NH2 yielded an MIC in data set [1] of 12.5 µM. This compound also had a Retention_time in data set [2] of 13.7 min.

With H-IEIEIEIE-NH2, in data set [1], the MIC was above 100 µM. Besides, the Retention_time in data set [2] is listed as 16.1 min.

In data set [1], H-IIIIKKKK-NH2 registered an MIC of 12.5 µM. Moreover, in data set [2], the Retention_time is on record as 12 min.

H-IIKKIIKK-NH2 came in with an MIC in data set [1] above 100 µM. Further, the Retention_time in data set [2] is given as 11.6 min.

On to H-ILRWPWWPWRRK-NH2 [OMIGANAN], for which, in data set [1], the MIC came out at 50 µM.
